Experimental data taken from ChEMBL document CHEMBL5252552, “Defined concatenated α6α1β3γ2 GABAA receptor constructs reveal dual action of pyrazoloquinolinone allosteric modulators” (Bioorg Med Chem, 2019).

Assays:
[1] = biological target: T1, Gamma-aminobutyric acid receptor subunit alpha-1/beta-3/gamma-2 (Rattus norvegicus) (UniProt P18508+P62813+P63079); assay: Positive allosteric modulation of rat recombinant GABAA alpha1beta3gamma2 receptor expressed in Xenopus laevis oocytes assessed as maximal current at -80 mV holding potential under less potent phase in presence of GABA EC1 to 1.5 by two-electrode voltage-clamp assay relative to control; assay type: cell-based; conditions: Oocyte, filed as positive allosteric modulator
[2] = biological target: T1, Gamma-aminobutyric acid receptor subunit alpha-1/beta-3/gamma-2 (Rattus norvegicus); assay: Positive allosteric modulation of rat recombinant GABAA alpha1beta3alpha1-gamma2beta3 receptor expressed in Xenopus laevis oocytes assessed as maximal efficacy at -80 mV holding potential at 30 uM in presence of GABA EC1 to 1.5 by two-electrode voltage-clamp assay; assay type: cell-based; conditions: Oocyte, filed as positive allosteric modulator
[3] = biological target: T2, Gamma-aminobutyric acid receptor subunit alpha-1/alpha-6/beta-3/gamma-2 (Rattus norvegicus) (UniProt P18508+P30191+P62813+P63079); assay: Positive allosteric modulation of rat recombinant GABAA alpha6beta3alpha1-gamma2beta3 receptor expressed in Xenopus laevis oocytes assessed as maximal efficacy at -80 mV holding potential at 300 nM in presence of GABA EC1 to 1.5 by two-electrode voltage-clamp assay; assay type: cell-based; conditions: Oocyte, filed as positive allosteric modulator
[4] = biological target: T2, Gamma-aminobutyric acid receptor subunit alpha-1/alpha-6/beta-3/gamma-2 (Rattus norvegicus); assay: Positive allosteric modulation of rat recombinant GABAA gamma2beta3alpha1-beta3alpha6 receptor expressed in Xenopus laevis oocytes assessed as maximal efficacy at -80 mV holding potential at 3 nM in presence of GABA EC1 to 1.5 by two-electrode voltage-clamp assay; assay type: cell-based; conditions: Oocyte
[5] = biological target: T3, Gamma-aminobutyric acid receptor subunit alpha-6/beta-3/gamma-2 (Rattus norvegicus) (UniProt P18508+P30191+P63079); assay: Positive allosteric modulation of rat recombinant GABAA alpha6beta3alpha6-gamma2beta3 receptor expressed in Xenopus laevis oocytes assessed as maximal current under less potent phase in presence of GABA EC1 to 1.5 by two-electrode voltage-clamp assay relative to control; assay type: cell-based; conditions: Oocyte, filed as positive allosteric modulator
[6] = biological target: T2, Gamma-aminobutyric acid receptor subunit alpha-1/alpha-6/beta-3/gamma-2 (Rattus norvegicus); assay: Positive allosteric modulation of rat recombinant GABAA gamma2beta3alpha1-beta3alpha6 receptor expressed in Xenopus laevis oocytes assessed as maximal efficacy at -80 mV holding potential at 10 nM in presence of GABA EC1 to 1.5 by two-electrode voltage-clamp assay; assay type: cell-based; conditions: Oocyte
[7] = biological target: T2, Gamma-aminobutyric acid receptor subunit alpha-1/alpha-6/beta-3/gamma-2 (Rattus norvegicus); assay: Positive allosteric modulation of rat recombinant GABAA gamma2beta3alpha1-beta3alpha6 receptor expressed in Xenopus laevis oocytes assessed as maximal efficacy at -80 mV holding potential at 3 uM in presence of GABA EC1 to 1.5 by two-electrode voltage-clamp assay; assay type: cell-based; conditions: Oocyte, filed as positive allosteric modulator
[8] = biological target: T4, Gamma-aminobutyric acid receptor subunit alpha-6/beta-3/gamma-2 (Rattus norvegicus, UniProt P18508+P30191+P63079); assay: (§1) Positive allosteric modulation of rat recombinant GABAA alpha6beta3gamma2 receptor expressed in Xenopus laevis oocytes assessed as increase in GABA-induced current amplitude at -80 mV holding potential under less potent phase in presence of GABA EC1 to 1.5 by two-electrode voltage-clamp assay; assay type: cell-based, Oocyte
T4 sequence (P18508 whole entry): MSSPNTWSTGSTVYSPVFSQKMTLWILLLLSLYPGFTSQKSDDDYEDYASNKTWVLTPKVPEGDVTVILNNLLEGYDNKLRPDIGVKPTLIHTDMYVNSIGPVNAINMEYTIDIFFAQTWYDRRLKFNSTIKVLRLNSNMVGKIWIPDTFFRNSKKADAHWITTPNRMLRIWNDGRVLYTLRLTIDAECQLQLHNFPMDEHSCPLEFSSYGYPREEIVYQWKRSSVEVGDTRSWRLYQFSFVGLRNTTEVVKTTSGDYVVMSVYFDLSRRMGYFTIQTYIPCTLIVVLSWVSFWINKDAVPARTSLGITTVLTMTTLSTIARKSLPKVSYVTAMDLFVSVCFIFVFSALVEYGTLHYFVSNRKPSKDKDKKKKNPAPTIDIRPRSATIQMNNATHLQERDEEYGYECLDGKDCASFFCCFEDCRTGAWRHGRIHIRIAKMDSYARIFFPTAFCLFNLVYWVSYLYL
T4 sequence (P30191 whole entry): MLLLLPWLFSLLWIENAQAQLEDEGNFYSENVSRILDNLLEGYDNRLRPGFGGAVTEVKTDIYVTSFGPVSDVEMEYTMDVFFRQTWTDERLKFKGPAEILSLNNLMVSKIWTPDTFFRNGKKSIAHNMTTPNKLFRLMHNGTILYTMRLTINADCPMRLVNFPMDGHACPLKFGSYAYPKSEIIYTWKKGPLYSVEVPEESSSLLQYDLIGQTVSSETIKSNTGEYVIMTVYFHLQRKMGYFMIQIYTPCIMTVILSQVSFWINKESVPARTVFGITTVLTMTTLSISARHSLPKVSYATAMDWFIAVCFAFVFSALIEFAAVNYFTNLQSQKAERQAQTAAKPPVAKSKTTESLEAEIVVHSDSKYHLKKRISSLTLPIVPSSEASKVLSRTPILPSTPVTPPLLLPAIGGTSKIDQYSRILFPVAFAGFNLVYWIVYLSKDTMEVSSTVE
T4 sequence (P63079 whole entry): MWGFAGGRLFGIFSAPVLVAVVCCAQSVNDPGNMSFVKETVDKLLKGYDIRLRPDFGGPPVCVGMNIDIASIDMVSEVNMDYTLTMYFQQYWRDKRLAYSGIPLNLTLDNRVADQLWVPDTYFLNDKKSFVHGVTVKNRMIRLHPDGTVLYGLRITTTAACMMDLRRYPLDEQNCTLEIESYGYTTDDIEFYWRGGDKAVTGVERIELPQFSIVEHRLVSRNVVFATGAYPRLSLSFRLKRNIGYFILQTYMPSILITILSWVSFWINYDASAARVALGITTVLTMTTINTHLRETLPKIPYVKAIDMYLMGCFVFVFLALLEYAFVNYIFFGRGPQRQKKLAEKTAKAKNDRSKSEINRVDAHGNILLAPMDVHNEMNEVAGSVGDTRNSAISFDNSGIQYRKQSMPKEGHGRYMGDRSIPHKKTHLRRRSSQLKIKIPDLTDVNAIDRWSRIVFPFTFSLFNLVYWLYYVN

[9] = biological target: T5, Gamma-aminobutyric acid receptor subunit alpha-1/alpha-6/beta-3/gamma-2 (Rattus norvegicus, UniProt P18508+P30191+P62813+P63079); assay: as §1, with “gamma2beta3alpha1-beta3alpha6” for “alpha6beta3gamma2”, “more” for “less”; assay type: cell-based, Oocyte
T5 sequence (P18508 whole entry): as the sequence (P18508 whole entry) above
T5 sequence (P30191 whole entry): as the sequence (P30191 whole entry) above
T5 sequence (P62813 whole entry): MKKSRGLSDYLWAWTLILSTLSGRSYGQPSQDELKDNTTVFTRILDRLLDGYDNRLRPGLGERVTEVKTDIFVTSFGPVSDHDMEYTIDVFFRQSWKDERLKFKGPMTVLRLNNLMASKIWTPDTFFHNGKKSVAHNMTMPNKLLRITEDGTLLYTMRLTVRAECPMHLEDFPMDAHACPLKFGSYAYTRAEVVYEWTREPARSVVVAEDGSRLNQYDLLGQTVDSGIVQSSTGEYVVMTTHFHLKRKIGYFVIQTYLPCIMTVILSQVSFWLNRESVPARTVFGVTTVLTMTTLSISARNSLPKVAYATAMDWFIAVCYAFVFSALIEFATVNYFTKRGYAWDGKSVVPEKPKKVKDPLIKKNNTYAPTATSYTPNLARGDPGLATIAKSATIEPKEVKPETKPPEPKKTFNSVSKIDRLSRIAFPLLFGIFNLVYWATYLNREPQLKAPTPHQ
T5 sequence (P63079 whole entry): as the sequence (P63079 whole entry) above

[10] = biological target: T2, Gamma-aminobutyric acid receptor subunit alpha-1/alpha-6/beta-3/gamma-2 (Rattus norvegicus); assay: Positive allosteric modulation of rat recombinant GABAA alpha6beta3alpha1-gamma2beta3 receptor expressed in Xenopus laevis oocytes assessed as maximal efficacy at -80 mV holding potential at 30 nM in presence of GABA EC1 to 1.5 by two-electrode voltage-clamp assay; assay type: cell-based; conditions: Oocyte
[11] = biological target: T2, Gamma-aminobutyric acid receptor subunit alpha-1/alpha-6/beta-3/gamma-2 (Rattus norvegicus); assay: Positive allosteric modulation of rat recombinant GABAA alpha6beta3alpha1-gamma2beta3 receptor expressed in Xenopus laevis oocytes assessed as maximal efficacy at -80 mV holding potential at 100 nM in presence of GABA EC1 to 1.5 by two-electrode voltage-clamp assay; assay type: cell-based; conditions: Oocyte
[12] = biological target: Gamma-aminobutyric acid receptor subunit alpha-1/beta-3/gamma-2 (Rattus norvegicus, UniProt P18508+P62813+P63079); assay: Positive allosteric modulation of rat recombinant GABAA alpha1beta3gamma2 receptor expressed in Xenopus laevis oocytes assessed as increase in GABA-induced current amplitude at -80 mV holding potential under less potent phase in presence of GABA EC1 to 1.5 by two-electrode voltage-clamp assay; assay type: cell-based, Oocyte
Sequence of Gamma-aminobutyric acid receptor subunit alpha-1/beta-3/gamma-2 (P18508 whole entry): as the sequence (P18508 whole entry) above
Sequence of Gamma-aminobutyric acid receptor subunit alpha-1/beta-3/gamma-2 (P62813 whole entry): as the sequence (P62813 whole entry) above
Sequence of Gamma-aminobutyric acid receptor subunit alpha-1/beta-3/gamma-2 (P63079 whole entry): as the sequence (P63079 whole entry) above

[13] = biological target: T2, Gamma-aminobutyric acid receptor subunit alpha-1/alpha-6/beta-3/gamma-2 (Rattus norvegicus); assay: Positive allosteric modulation of rat recombinant GABAA alpha6beta3alpha1-gamma2beta3 receptor expressed in Xenopus laevis oocytes assessed as maximal current at -80 mV holding potential under less potent phase in presence of GABA EC1 to 1.5 by two-electrode voltage-clamp assay relative to control; assay type: cell-based; conditions: Oocyte, filed as positive allosteric modulator
[14] = biological target: T3, Gamma-aminobutyric acid receptor subunit alpha-6/beta-3/gamma-2 (Rattus norvegicus); assay: Positive allosteric modulation of rat recombinant GABAA alpha6beta3alpha6-gamma2beta3 receptor expressed in Xenopus laevis oocytes assessed as maximal current at -80 mV holding potential under more potent phase in presence of GABA EC1 to 1.5 by two-electrode voltage-clamp assay relative to control; assay type: cell-based; conditions: Oocyte, filed as positive allosteric modulator
[15] = biological target: T3, Gamma-aminobutyric acid receptor subunit alpha-6/beta-3/gamma-2 (Rattus norvegicus); assay: Positive allosteric modulation of rat recombinant GABAA alpha6beta3alpha6-gamma2beta3 receptor expressed in Xenopus laevis oocytes assessed as maximal efficacy at -80 mV holding potential at 30 nM in presence of GABA EC1 to 1.5 by two-electrode voltage-clamp assay; assay type: cell-based; conditions: Oocyte, filed as positive allosteric modulator
[16] = biological target: T3, Gamma-aminobutyric acid receptor subunit alpha-6/beta-3/gamma-2 (Rattus norvegicus); assay: Positive allosteric modulation of rat recombinant GABAA alpha6beta3alpha6-gamma2beta3 receptor expressed in Xenopus laevis oocytes assessed as maximal efficacy at -80 mV holding potential at 3 uM in presence of GABA EC1 to 1.5 by two-electrode voltage-clamp assay; assay type: cell-based; conditions: Oocyte, filed as positive allosteric modulator
[17] = biological target: T5, Gamma-aminobutyric acid receptor subunit alpha-1/alpha-6/beta-3/gamma-2; assay: as §1, with “alpha6beta3alpha1-gamma2beta3” for “alpha6beta3gamma2”; assay type: cell-based, Oocyte
[18] = biological target: T3, Gamma-aminobutyric acid receptor subunit alpha-6/beta-3/gamma-2 (Rattus norvegicus); assay: Positive allosteric modulation of rat recombinant GABAA alpha6beta3gamma2 receptor expressed in Xenopus laevis oocytes assessed as maximal efficacy at -80 mV holding potential at 3 uM in presence of GABA EC1 to 1.5 by two-electrode voltage-clamp assay; assay type: cell-based; conditions: Oocyte, filed as positive allosteric modulator
[19] = biological target: T3, Gamma-aminobutyric acid receptor subunit alpha-6/beta-3/gamma-2 (Rattus norvegicus); assay: Positive allosteric modulation of rat recombinant GABAA alpha6beta3gamma2 receptor expressed in Xenopus laevis oocytes assessed as maximal efficacy at -80 mV holding potential at 100 nM in presence of GABA EC1 to 1.5 by two-electrode voltage-clamp assay; assay type: cell-based; conditions: Oocyte, filed as positive allosteric modulator
[20] = biological target: T3, Gamma-aminobutyric acid receptor subunit alpha-6/beta-3/gamma-2 (Rattus norvegicus); assay: Positive allosteric modulation of rat recombinant GABAA alpha6beta3gamma2 receptor expressed in Xenopus laevis oocytes assessed as maximal efficacy at -80 mV holding potential at 1 uM in presence of GABA EC1 to 1.5 by two-electrode voltage-clamp assay; assay type: cell-based; conditions: Oocyte, filed as positive allosteric modulator
[21] = biological target: T2, Gamma-aminobutyric acid receptor subunit alpha-1/alpha-6/beta-3/gamma-2 (Rattus norvegicus); assay: Positive allosteric modulation of rat recombinant GABAA gamma2beta3alpha1-beta3alpha6 receptor expressed in Xenopus laevis oocytes assessed as maximal current at -80 mV holding potential under less potent phase in presence of GABA EC1 to 1.5 by two-electrode voltage-clamp assay relative to control; assay type: cell-based; conditions: Oocyte, filed as positive allosteric modulator
[22] = biological target: T4, Gamma-aminobutyric acid receptor subunit alpha-6/beta-3/gamma-2; assay: as §1, with “alpha6beta3alpha6-gamma2beta3” for “alpha6beta3gamma2”, “more” for “less”; assay type: cell-based, Oocyte
[23] = biological target: T3, Gamma-aminobutyric acid receptor subunit alpha-6/beta-3/gamma-2 (Rattus norvegicus); assay: Positive allosteric modulation of rat recombinant GABAA alpha6beta3gamma2 receptor expressed in Xenopus laevis oocytes assessed as maximal efficacy at -80 mV holding potential at 1 nM in presence of GABA EC1 to 1.5 by two-electrode voltage-clamp assay; assay type: cell-based; conditions: Oocyte

For `COc1ccc(-n2nc3c4ccc(Br)cc4[nH]cc-3c2=O)cc1`, the %max [1] was 132%, the Efficacy [2] was 242% and the Efficacy [3] was 60%. The Efficacy [4] was 16%, the %max [5] was 657% and the Efficacy [6] was 23%. The Efficacy [7] was 89%, the EC50 [8] was 11 µM and the EC50 [9] was 0.004 µM. For the same compound, the Efficacy [10] was 8%, the Efficacy [11] was 18% and the EC50 [12] was 6 µM. For the same compound, the %max [13] was 1060%, the %max [14] was 82% and the Efficacy [15] was 65%. It also gave an Efficacy [16] of 320%, an EC50 [17] of 7 µM and an Efficacy [18] of 377%. It also gave an Efficacy [19] of 46%, an Efficacy [20] of 185% and a %max [21] of 230%. It also gave an EC50 [22] of 0.009 µM and an Efficacy [23] of 9%.
